Data from ChEMBL document CHEMBL5321216, “Discovery of bipyridine amide derivatives targeting pRXRα-PLK1 interaction for anticancer therapy” (Eur J Med Chem, 2023).
pIC50, pKd: −log10 of the molar value. Calls of active or inactive are those of the source. No cut-off for these calls is given here.

Assays:
MDA-MB-231 [1] = assay: Antitumor activity against human MDA-MB-231 cells xenografted in BALB/c nude mouse assessed as tumor growth inhibition at 25 mg/kg/day, ip administered for 15 days and measured once a day relative to control; assay type: functional; settings: MDA-MB-231, 360 h, time 15 day, read-out: TGI
MDA-MB-231 [2] = assay: Induction of apoptosis in human MDA-MB-231 cells assessed as late apoptotic cells at 125 nM incubated for 24 hrs by annexin V-FITC/PI staining based flow cytometry analysis (reference value: 5.93%); assay type: functional
A549 [3] = assay: Induction of apoptosis in human A549 cells assessed as dead cells at 125 nM incubated for 24 hrs by annexin V-FITC/PI staining based flow cytometry analysis (reference value: 0.75%); assay type: functional
HepG2 = assay: Antiproliferative activity against human HepG2 cells assessed as inhibition of cell proliferation incubated for 72 hrs by MTT assay; assay type: functional, cell-based; settings: HepG2, 72 h
[4] = target: T1, Retinoic acid receptor RXR-alpha (Homo sapiens, UniProt P19793); assay: Binding affinity to RXRalpha LBD (unknown origin) assessed as dissociation constant by fluorescence quenching analysis
T1 sequence (P19793 whole entry): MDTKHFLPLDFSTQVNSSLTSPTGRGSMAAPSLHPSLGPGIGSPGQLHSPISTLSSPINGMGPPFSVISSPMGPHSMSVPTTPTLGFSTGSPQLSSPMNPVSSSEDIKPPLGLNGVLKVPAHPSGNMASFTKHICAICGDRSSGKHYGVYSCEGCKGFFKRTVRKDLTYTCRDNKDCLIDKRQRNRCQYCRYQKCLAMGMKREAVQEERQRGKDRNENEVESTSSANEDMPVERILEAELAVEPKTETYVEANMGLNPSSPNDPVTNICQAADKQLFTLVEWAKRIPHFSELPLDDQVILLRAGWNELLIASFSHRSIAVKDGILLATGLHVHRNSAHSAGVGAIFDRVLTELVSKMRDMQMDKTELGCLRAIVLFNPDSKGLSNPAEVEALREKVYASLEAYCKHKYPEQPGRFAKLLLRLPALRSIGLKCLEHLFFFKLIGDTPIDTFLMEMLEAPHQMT

MDA-MB-231 [5] = assay: Inhibition of colony formation in human MDA-MB-231 cells incubated for 48 hrs followed by replacement with normal culture medium and measured after […] by crystal violet staining based assay; assay type: functional, cell-based; settings: dose 0.976-250 nM
A549 [6] = assay: Induction of cell cycle arrest in RXRalpha knockout human A549 cells assessed as accumulation of cells at G2 phase at 125 nM incubated for 12 hrs by DAPI staining based flow cytometry analysis (reference value: 14.97%); assay type: functional
A549 [7] = assay: Induction of apoptosis in human A549 cells assessed as late apoptotic cells at 31.25 nM incubated for 24 hrs by annexin V-FITC/PI staining based flow cytometry analysis (reference value: 5.28%); assay type: functional
[8] = Cmax in Sprague-Dawley rat at 25 mg/kg, ip measured for 48 hrs by LC-MS/MS analysis; assay type: ADME, organism-based; design: time 48 hrs, dose 25 mg/kg, route ip; settings: in vivo
MDA-MB-231 [9] = assay: Antitumor activity against human MDA-MB-231 cells xenografted in BALB/c nude mouse assessed as reduction in RXRalpha protein expression at 25 mg/kg/day, ip administered for 15 days by immunohistochemical analysis; assay type: functional, organism-based; settings: time 15.0 day
[10] = Selectivity index, ratio of IC50 for human HCC1937 cells to IC50 for human MDA-MB-231 cells; assay type: functional
A549 [11] = assay: Induction of cell cycle arrest in human A549 cells assessed as accumulation of cells at G2 phase at 31.25 nM incubated for 12 hrs by flow cytometry analysis (reference value: 8.62%); assay type: functional
MDA-MB-231 [12] = assay: Induction of cell cycle arrest in human MDA-MB-231 cells assessed as accumulation of cells at S phase at 62.5 nM incubated for 12 hrs by flow cytometry analysis (reference value: 40.89%); assay type: functional
MDA-MB-231 [13] = assay: Induction of apoptosis in human MDA-MB-231 cells assessed as dead cells at 62.5 nM incubated for 24 hrs by annexin V-FITC/PI staining based flow cytometry analysis (reference value: 0.69%); assay type: functional
A549 [14] = assay: Induction of apoptosis in human A549 cells assessed as dead cells at 31.25 nM incubated for 24 hrs by annexin V-FITC/PI staining based flow cytometry analysis (reference value: 0.75%); assay type: functional
[15] = Drug absorption in KM mouse at 25 mg/kg, po measured after 0.5 to 2 hrs; assay type: ADME, organism-based; settings: in vivo, time 0.5-2 hrs
MDA-MB-231 [16] = assay: Induction of apoptosis in human MDA-MB-231 cells assessed as early apoptotic cells at 62.5 nM incubated for 24 hrs by annexin V-FITC/PI staining based flow cytometry analysis (reference value: 2.03%); assay type: functional
MDA-MB-231 [17] = assay: Upregulation of phosphorylated RXRalpha protein level in human MDA-MB-231 cells at 125 to 500 nM incubated for 24 hrs in presence of thermosensitive alkaline phosphatase by Western blot analysis; assay type: functional, cell-based; settings: dose 125-500 nM
[18] = target: T1, Retinoic acid receptor RXR-alpha; assay: Binding affinity to RXRalpha LBD (unknown origin) assessed as increase in response unit by measuring dissociation constant by SPR analysis
A549 [19] = assay: Induction of cell cycle arrest in human A549 cells assessed as accumulation of cells at G1 phase at 15.625 nM incubated for 12 hrs by flow cytometry analysis (reference value: 59.57%); assay type: functional; settings: 0.01562 µM
[20] = Apparent volume of distribution during terminal phase in Sprague-Dawley rat at 25 mg/kg, ip measured for 48 hrs by LC-MS/MS analysis; assay type: ADME, organism-based; settings: in vivo, read-out: Vz/F
HCC1937 = assay: Antiproliferative activity against human HCC1937 cells assessed as inhibition of cell proliferation incubated for 72 hrs by MTT assay; assay type: functional, cell-based; settings: HCC1937, 72 h
A549 [21] = assay: Induction of cell cycle arrest in human A549 cells assessed as accumulation of cells at G2 phase at 62.5 nM incubated for 12 hrs by flow cytometry analysis (reference value: 8.62%); assay type: functional
MDA-MB-231 [22] = assay: Induction of apoptosis in human MDA-MB-231 cells assessed as increase in cleaved PARP expression measured after 24 hrs by Western blot analysis; assay type: functional, cell-based; settings: dose 7.8-500 nM
MDA-MB-231 [23] = assay: Induction of cell cycle arrest in human MDA-MB-231 cells assessed as accumulation of cells at S phase at 15.625 nM incubated for 12 hrs by flow cytometry analysis (reference value: 40.89%); assay type: functional; settings: 0.01562 µM
MDA-MB-231 [24] = assay: Induction of cell cycle arrest in human MDA-MB-231 cells assessed as accumulation of cells at G1 phase at 15.625 nM incubated for 12 hrs by flow cytometry analysis (reference value: 43.2%); assay type: functional; settings: 0.01562 µM
MDA-MB-231 [25] = assay: Induction of cell cycle arrest in human MDA-MB-231 cells assessed as accumulation of cells at G2 phase at 15.625 nM incubated for 12 hrs by flow cytometry analysis (reference value: 15.91%); assay type: functional; settings: 0.01562 µM
MDA-MB-231 [26] = assay: Induction of mitotic arrest in human MDA-MB-231 cells assessed as disordered spindle formation at 62.5 nM incubated for 12 hrs by alpha-tubulin/DAPI staining based confocal microscopic analysis; assay type: functional, cell-based
MDA-MB-231 [27] = assay: Downregulation of RXRalpha protein level in human MDA-MB-231 cells at 125 nM measured after 1 to 24 hrs by Western blot analysis; assay type: functional, cell-based; settings: time 1-24 hrs

Compound: O=C(/C=C/c1ccccc1)Nc1cc(-c2ccnc(N3CCC(CO)CC3)c2)ccn1
- inhibition in vivo at 25 mg/kg/day (MDA-MB-231 [1]): 59.3%
- Activity (MDA-MB-231 [2]): 19.2%
- Activity (A549 [3]): 2.31%
- pIC50 (HepG2): 6.89
- pKd [4]: 6.83
- inhibition (MDA-MB-231 [5]): Dose-Dependent Effect
- Activity (A549 [6]): 45.99%
- Activity (A549 [7]): 18.9%
- Cmax [8]: 8080 ng/mL
- Activity (MDA-MB-231 [9]): Active
- Ratio IC50 [10]: 35.06
- Activity (A549 [11]): 8.76%
- Activity (MDA-MB-231 [12]): 16.51%
- Activity (MDA-MB-231 [13]): 2.47%
- Activity (A549 [14]): 3.98%
- Drug absorption [15]: Not Active
- Activity (MDA-MB-231 [16]): 13.1%
- Activity (MDA-MB-231 [17]): inactive
- pKd [18]: 7.40
- Activity (A549 [19]): 59.06%
- Vd/F [20]: 5.15 L/kg
- pIC50 (HCC1937): 6.25
- Activity (A549 [21]): 12.89%
- Activity (MDA-MB-231 [22]): Dose-Dependent Effect
- Activity (MDA-MB-231 [23]): 41.47%
- Activity (MDA-MB-231 [24]): 42.77%
- Activity (MDA-MB-231 [25]): 15.75%
- Activity (MDA-MB-231 [26]): Active
- Activity (MDA-MB-231 [27]): Active
